# Patent US6342537B1, “Gel for treatment of skin diseases and for disinfection of the skin” (priority 1994, dated 2002)
# Several values for one entry are separate records, joined by “and”; a condition that tells them apart may be missing. Identical values can stand only once. Like-named read-outs stand apart in the source and are kept apart here.
# Legend:
# [1] = system: herpes labialis eruptions; settings: glass container; for symptom relief: two early phases
# [2] = system: herpes labialis eruptions; settings: in vivo
# Description: 23.4—Application of Gelled Alcohol
# In this example some of the gelled compositions contained 1.6% by weight HPC and others contained 1.6% by weight EHEC.
# [3] = system: herpes labialis eruptions; assay: Herpes labialis eruptions, prolonged contact with impregnated cotton (Example 23.2); format: in vivo, human; settings: for symptom relief: intensive depot treatment
# [4] = system: recurrent herpes genitalia, herpes febrilis (labialis); settings: nonimmunocompromised patients; cited from earlier work
# [5] = system: herpes simplex virus (HSV) type 1; assay: Inactivation of herpes simplex virus in infected MRC-5 cells by alcohols (Example 25); format: cell-based; settings: for HSV - CPE after 44 hours with the detecting cell-layer: duplicate wells; for inactivation of herpes simplex virus (in words): HSV type 1 infected MRC-5 cells; on HSV - CPE after 44 hours with the detecting cell-layer: key: 0: no CPE; 1: a few; 2: several; 3: all cells infected with HSV
# Protocol: Ethanol is an accepted disinfectant for viruses with an envelope. The purpose of this study was to measure the inactivating effect of “short-chained alcohols” on virus-infected cells.
# Four 96 well plates with confluent MRC-5 cell were infected with herpes simplex virus (HSV) type 1. After appearance of 50% cytopathic effect (CPE), the culture medium was removed, and rows of 12 wells were treated with 25 μl/well of the alcohols or buffer after the following scheme: The first row with undiluted, and the following with 96%, 90%, 80%, 70%, 60% and 50% alcohol, respectively—all dilutions performed in buffer (PBS). To the last row was added buffer. After 2, 4, 8, 16 and 32 min, respectively, two wells in each row were emptied and the cells overlaid with PBS. The plate was then frozen at —80° C. Afterwards the wells were seeded with a detection layer of MRC-5 cells and the plates were placed at 37° C. for 44 hours. Virus surviving the treatment with alcohol was detected by the appearance of CPE, characteristic for HSV in the detection monolayer.
# [6] = alcohol undiluted, 2 min with alcohol
molecule,measurement,setting,value
CCO [Ethanol 95%],eruption abortive effect,[1],clearly observed
same,eruption shortening effect,[1],likewise observed
same,symptom relief,[1],very strong symptom relief
same,pain reaction on application in the ulceration phase,[2],slight pain of short duration
same,symptom relief,[3],palliative effect on symptom relief
"Nc1nc2c(ncn2COCCO)c(=O)[nH]1 [Topical acyclovir, acyclovir]",effectiveness in recurrent herpes genitalia / labialis,[4],not effective
CCO [Ethanol 90%],pain reaction on application in the ulceration phase,[2],less pain or shorter duration
CC(C)O [Isopropanol],HSV - CPE after 44 hours with the detecting cell-layer,"[5]; 50% alcohol in PBS, 2 min",3 and 2
same,HSV - CPE after 44 hours with the detecting cell-layer,"[5]; 50% alcohol in PBS, 4 min",3 and 2
same,HSV - CPE after 44 hours with the detecting cell-layer,"[5]; 50% alcohol in PBS, 8 min",3
same,HSV - CPE after 44 hours with the detecting cell-layer,"[5]; 50% alcohol in PBS, 16 min",3 and 2
same,HSV - CPE after 44 hours with the detecting cell-layer,"[5]; 50% alcohol in PBS, 32 min",3
same,HSV - CPE after 44 hours with the detecting cell-layer,"[5]; 60% alcohol in PBS, 2 min",2
same,HSV - CPE after 44 hours with the detecting cell-layer,"[5]; 60% alcohol in PBS, 4 min",1
same,HSV - CPE after 44 hours with the detecting cell-layer,"[5]; 60% alcohol in PBS, 8 min",2 and 1
same,HSV - CPE after 44 hours with the detecting cell-layer,"[5]; 60% alcohol in PBS, 16 min",2 and 3
same,HSV - CPE after 44 hours with the detecting cell-layer,"[5]; 60% alcohol in PBS, 32 min",3
same,HSV - CPE after 44 hours with the detecting cell-layer,"[5]; 70% alcohol in PBS, 2 min",2
same,HSV - CPE after 44 hours with the detecting cell-layer,"[5]; 70% alcohol in PBS, 4 min",1
same,HSV - CPE after 44 hours with the detecting cell-layer,"[5]; 70% alcohol in PBS, 8 min",1 and 0
same,HSV - CPE after 44 hours with the detecting cell-layer,"[5]; 70% alcohol in PBS, 16 min",1
same,HSV - CPE after 44 hours with the detecting cell-layer,"[5]; 70% alcohol in PBS, 32 min",0 and 2
same,HSV - CPE after 44 hours with the detecting cell-layer,"[5]; 80% alcohol in PBS, 2 min",1
same,HSV - CPE after 44 hours with the detecting cell-layer,"[5]; 80% alcohol in PBS, 4 min",0 and 1
same,HSV - CPE after 44 hours with the detecting cell-layer,"[5]; 80% alcohol in PBS, 8 min",1
same,HSV - CPE after 44 hours with the detecting cell-layer,"[5]; 80% alcohol in PBS, 16 min",0 and 1
same,HSV - CPE after 44 hours with the detecting cell-layer,"[5]; 80% alcohol in PBS, 32 min",1 and 3
same,HSV - CPE after 44 hours with the detecting cell-layer,"[5]; 90% alcohol in PBS, 2 min",0 and 1
same,HSV - CPE after 44 hours with the detecting cell-layer,"[5]; 90% alcohol in PBS, 4 min",0
same,HSV - CPE after 44 hours with the detecting cell-layer,"[5]; 90% alcohol in PBS, 8 min",0
same,HSV - CPE after 44 hours with the detecting cell-layer,"[5]; 90% alcohol in PBS, 16 min",0
same,HSV - CPE after 44 hours with the detecting cell-layer,"[5]; 90% alcohol in PBS, 32 min",0
same,HSV - CPE after 44 hours with the detecting cell-layer,"[5]; 96% alcohol in PBS, 2 min",0
same,HSV - CPE after 44 hours with the detecting cell-layer,"[5]; 96% alcohol in PBS, 4 min",0
same,HSV - CPE after 44 hours with the detecting cell-layer,"[5]; 96% alcohol in PBS, 8 min",0
same,HSV - CPE after 44 hours with the detecting cell-layer,"[5]; 96% alcohol in PBS, 16 min",0
same,HSV - CPE after 44 hours with the detecting cell-layer,"[5]; 96% alcohol in PBS, 32 min",0
same,inactivation of herpes simplex virus (in words),[5],able to inactivate herpes simplex virus even intracellular virus
same,HSV - CPE after 44 hours with the detecting cell-layer,[5]; [6],0
same,HSV - CPE after 44 hours with the detecting cell-layer,"[5]; alcohol undiluted, 4 min",0
same,HSV - CPE after 44 hours with the detecting cell-layer,"[5]; alcohol undiluted, 8 min",0
same,HSV - CPE after 44 hours with the detecting cell-layer,"[5]; alcohol undiluted, 16 min",0
same,HSV - CPE after 44 hours with the detecting cell-layer,"[5]; alcohol undiluted, 32 min",0
CCO [Ethanol],HSV - CPE after 44 hours with the detecting cell-layer,"[5]; 50% alcohol in PBS, 2 min",3
same,HSV - CPE after 44 hours with the detecting cell-layer,"[5]; 50% alcohol in PBS, 4 min",3
same,HSV - CPE after 44 hours with the detecting cell-layer,"[5]; 50% alcohol in PBS, 8 min",3
same,HSV - CPE after 44 hours with the detecting cell-layer,"[5]; 50% alcohol in PBS, 16 min",3
same,HSV - CPE after 44 hours with the detecting cell-layer,"[5]; 50% alcohol in PBS, 32 min",3
same,HSV - CPE after 44 hours with the detecting cell-layer,"[5]; 60% alcohol in PBS, 2 min",3
same,HSV - CPE after 44 hours with the detecting cell-layer,"[5]; 60% alcohol in PBS, 4 min",3
same,HSV - CPE after 44 hours with the detecting cell-layer,"[5]; 60% alcohol in PBS, 8 min",3
same,HSV - CPE after 44 hours with the detecting cell-layer,"[5]; 60% alcohol in PBS, 16 min",3
same,HSV - CPE after 44 hours with the detecting cell-layer,"[5]; 60% alcohol in PBS, 32 min",3
same,HSV - CPE after 44 hours with the detecting cell-layer,"[5]; 70% alcohol in PBS, 2 min",3
same,HSV - CPE after 44 hours with the detecting cell-layer,"[5]; 70% alcohol in PBS, 4 min",3
same,HSV - CPE after 44 hours with the detecting cell-layer,"[5]; 70% alcohol in PBS, 8 min",3
same,HSV - CPE after 44 hours with the detecting cell-layer,"[5]; 70% alcohol in PBS, 16 min",3
same,HSV - CPE after 44 hours with the detecting cell-layer,"[5]; 70% alcohol in PBS, 32 min",3
same,HSV - CPE after 44 hours with the detecting cell-layer,"[5]; 80% alcohol in PBS, 2 min",2
same,HSV - CPE after 44 hours with the detecting cell-layer,"[5]; 80% alcohol in PBS, 4 min",2
same,HSV - CPE after 44 hours with the detecting cell-layer,"[5]; 80% alcohol in PBS, 8 min",2
same,HSV - CPE after 44 hours with the detecting cell-layer,"[5]; 80% alcohol in PBS, 16 min",2
same,HSV - CPE after 44 hours with the detecting cell-layer,"[5]; 80% alcohol in PBS, 32 min",2
same,HSV - CPE after 44 hours with the detecting cell-layer,"[5]; 90% alcohol in PBS, 2 min",1
same,HSV - CPE after 44 hours with the detecting cell-layer,"[5]; 90% alcohol in PBS, 4 min",1 and 0
same,HSV - CPE after 44 hours with the detecting cell-layer,"[5]; 90% alcohol in PBS, 8 min",0
same,HSV - CPE after 44 hours with the detecting cell-layer,"[5]; 90% alcohol in PBS, 16 min",0
same,HSV - CPE after 44 hours with the detecting cell-layer,"[5]; 90% alcohol in PBS, 32 min",0
same,HSV - CPE after 44 hours with the detecting cell-layer,"[5]; 96% alcohol in PBS, 2 min",1
same,HSV - CPE after 44 hours with the detecting cell-layer,"[5]; 96% alcohol in PBS, 4 min",1 and 0
same,HSV - CPE after 44 hours with the detecting cell-layer,"[5]; 96% alcohol in PBS, 8 min",0
same,HSV - CPE after 44 hours with the detecting cell-layer,"[5]; 96% alcohol in PBS, 16 min",0
same,HSV - CPE after 44 hours with the detecting cell-layer,"[5]; 96% alcohol in PBS, 32 min",0
same,inactivation of herpes simplex virus (in words),[5],able to inactivate herpes simplex virus even intracellular virus
same,HSV - CPE after 44 hours with the detecting cell-layer,[5]; [6],0
same,HSV - CPE after 44 hours with the detecting cell-layer,"[5]; alcohol undiluted, 4 min",0
same,HSV - CPE after 44 hours with the detecting cell-layer,"[5]; alcohol undiluted, 8 min",0
same,HSV - CPE after 44 hours with the detecting cell-layer,"[5]; alcohol undiluted, 16 min",0
same,HSV - CPE after 44 hours with the detecting cell-layer,"[5]; alcohol undiluted, 32 min",0
CCO [Ethanol 99%],eruption abortive effect,[1],clearly observed
same,eruption shortening effect,[1],likewise observed
same,symptom relief,[1],very strong symptom relief
same,pain reaction on application in the ulceration phase,[2],slight pain of short duration
same,abortive effect,[3]; early phase and vesicular phase,some abortive effect
same,symptom relief,[3],palliative effect on symptom relief
Butanol,HSV - CPE after 44 hours with the detecting cell-layer,"[5]; 50% alcohol in PBS, 2 min",0 and 2
same,HSV - CPE after 44 hours with the detecting cell-layer,"[5]; 50% alcohol in PBS, 4 min",2
same,HSV - CPE after 44 hours with the detecting cell-layer,"[5]; 50% alcohol in PBS, 8 min",2
same,HSV - CPE after 44 hours with the detecting cell-layer,"[5]; 50% alcohol in PBS, 16 min",0
same,HSV - CPE after 44 hours with the detecting cell-layer,"[5]; 50% alcohol in PBS, 32 min",1 and 0
same,HSV - CPE after 44 hours with the detecting cell-layer,"[5]; 60% alcohol in PBS, 2 min",0 and 2
same,HSV - CPE after 44 hours with the detecting cell-layer,"[5]; 60% alcohol in PBS, 4 min",2
same,HSV - CPE after 44 hours with the detecting cell-layer,"[5]; 60% alcohol in PBS, 8 min",2 and 0
same,HSV - CPE after 44 hours with the detecting cell-layer,"[5]; 60% alcohol in PBS, 16 min",0
same,HSV - CPE after 44 hours with the detecting cell-layer,"[5]; 60% alcohol in PBS, 32 min",1 and 0
same,HSV - CPE after 44 hours with the detecting cell-layer,"[5]; 70% alcohol in PBS, 2 min",0
same,HSV - CPE after 44 hours with the detecting cell-layer,"[5]; 70% alcohol in PBS, 4 min",0 and 1
same,HSV - CPE after 44 hours with the detecting cell-layer,"[5]; 70% alcohol in PBS, 8 min",1 and 0
same,HSV - CPE after 44 hours with the detecting cell-layer,"[5]; 70% alcohol in PBS, 16 min",0 and 1
same,HSV - CPE after 44 hours with the detecting cell-layer,"[5]; 70% alcohol in PBS, 32 min",1
same,HSV - CPE after 44 hours with the detecting cell-layer,"[5]; 80% alcohol in PBS, 2 min",0
same,HSV - CPE after 44 hours with the detecting cell-layer,"[5]; 80% alcohol in PBS, 4 min",0 and 1
same,HSV - CPE after 44 hours with the detecting cell-layer,"[5]; 80% alcohol in PBS, 8 min",1 and 0
same,HSV - CPE after 44 hours with the detecting cell-layer,"[5]; 80% alcohol in PBS, 16 min",0
same,HSV - CPE after 44 hours with the detecting cell-layer,"[5]; 80% alcohol in PBS, 32 min",1 and 0
same,HSV - CPE after 44 hours with the detecting cell-layer,"[5]; 90% alcohol in PBS, 2 min",0
same,HSV - CPE after 44 hours with the detecting cell-layer,"[5]; 90% alcohol in PBS, 4 min",0 and 1
same,HSV - CPE after 44 hours with the detecting cell-layer,"[5]; 90% alcohol in PBS, 8 min",0
same,HSV - CPE after 44 hours with the detecting cell-layer,"[5]; 90% alcohol in PBS, 16 min",1 and 0
same,HSV - CPE after 44 hours with the detecting cell-layer,"[5]; 90% alcohol in PBS, 32 min",0 and 3
same,HSV - CPE after 44 hours with the detecting cell-layer,"[5]; 96% alcohol in PBS, 2 min",0
same,HSV - CPE after 44 hours with the detecting cell-layer,"[5]; 96% alcohol in PBS, 4 min",0
same,HSV - CPE after 44 hours with the detecting cell-layer,"[5]; 96% alcohol in PBS, 8 min",0 and 2
same,HSV - CPE after 44 hours with the detecting cell-layer,"[5]; 96% alcohol in PBS, 16 min",0
same,HSV - CPE after 44 hours with the detecting cell-layer,"[5]; 96% alcohol in PBS, 32 min",0
same,inactivation of herpes simplex virus (in words),[5],able to inactivate herpes simplex virus even intracellular virus
same,HSV - CPE after 44 hours with the detecting cell-layer,[5]; [6],0
same,HSV - CPE after 44 hours with the detecting cell-layer,"[5]; alcohol undiluted, 4 min",0
same,HSV - CPE after 44 hours with the detecting cell-layer,"[5]; alcohol undiluted, 8 min",0
same,HSV - CPE after 44 hours with the detecting cell-layer,"[5]; alcohol undiluted, 16 min",0
same,HSV - CPE after 44 hours with the detecting cell-layer,"[5]; alcohol undiluted, 32 min",0
